# Experimental data reported in ChEMBL document CHEMBL1201862, “PubChem BioAssay data set” (2004).
# The source made the active and inactive calls.
# How the values were obtained:
# [1] = molecular target: FAD-linked sulfhydryl oxidase ALR (Homo sapiens, UniProt P55789); experiment: inhibitors of human ALR sulfhydryl oxidase, dose response, biochemical, H2O2 detection, luminescence, cherry-pick (AID 493248)
# [2] = molecular target: T1, Corticotropin-releasing factor receptor 2/Corticotropin-releasing factor-binding protein (Homo sapiens, UniProt P24387+Q13324); experiment: Dose Response confirmation of uHTS hits for small molecule antagonists of the CRF-binding protein and CRF-R2 receptor complex.; type: functional; conditions: read-out: IC50_Mean
# T1 sequence (Q13324 whole entry): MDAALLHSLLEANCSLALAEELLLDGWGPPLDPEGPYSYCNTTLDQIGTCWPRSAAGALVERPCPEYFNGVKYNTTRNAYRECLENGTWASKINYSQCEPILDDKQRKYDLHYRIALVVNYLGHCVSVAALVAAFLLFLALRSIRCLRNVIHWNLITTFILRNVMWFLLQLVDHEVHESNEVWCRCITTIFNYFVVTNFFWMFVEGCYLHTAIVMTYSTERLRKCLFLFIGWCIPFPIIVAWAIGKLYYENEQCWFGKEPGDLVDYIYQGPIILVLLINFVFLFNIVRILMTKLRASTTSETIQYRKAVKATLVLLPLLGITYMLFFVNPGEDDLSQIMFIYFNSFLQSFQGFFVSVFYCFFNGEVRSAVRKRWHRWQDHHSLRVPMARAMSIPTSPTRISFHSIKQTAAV
# T1 sequence (P24387 whole entry): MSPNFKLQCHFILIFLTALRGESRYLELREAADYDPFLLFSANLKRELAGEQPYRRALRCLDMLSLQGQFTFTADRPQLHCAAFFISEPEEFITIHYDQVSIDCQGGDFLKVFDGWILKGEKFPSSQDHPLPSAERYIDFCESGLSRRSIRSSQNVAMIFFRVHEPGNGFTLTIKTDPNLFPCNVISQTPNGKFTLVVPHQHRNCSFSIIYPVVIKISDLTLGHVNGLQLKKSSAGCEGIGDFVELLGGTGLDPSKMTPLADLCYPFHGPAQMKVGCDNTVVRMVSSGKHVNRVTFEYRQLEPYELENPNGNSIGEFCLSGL
# [3] = molecular target: T1, Corticotropin-releasing factor receptor 2/Corticotropin-releasing factor-binding protein; experiment: activators of CRF receptor 2 with binding protein – uHTS hits, confirmation (AID 602473); type: functional; conditions: read-out: EC50_Mean
# [4] = molecular target: Fatty acid synthase (Homo sapiens, UniProt P49327); experiment: FAS thioesterase domain inhibitors, dose response, biochemical, kinetic fluorescence intensity (AID 624326); type: functional;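 further: rate of fluorescence rise from hydrolysis of a fluorogenic O-methyl fluorescein ester substrate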
# [5] = cytotoxicity toward NIH3T3 fibroblasts, dose response, counter-screen, cell-based, ATP luminescence, mouse fibroblasts (AID 2010); type: functional;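 further: cells exposed to compound for about 90 hours before reading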
# [6] = inhibitors of intracellular T. cruzi replication, confirmation, NIH3T3 host cells, beta-gal luminescence (AID 2044); type: functional, cell-based;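 further: intracellular parasites grown in NIH/3T3 mouse fibroblasts as host cells; luminescent beta-galactosidase reporter signal from transgenic T. cruzi replicating inside host cells; inhibitors lower the luminescence signal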
# [7] = test system: P388; experiment: cells; type: functional; conditions: Mus musculus
# [8] = test system: P388/ADR; experiment: cells; type: functional; conditions: Mus musculus
# [9] = test system: SN12K1; experiment: cells; type: functional; conditions: Homo sapiens
# [10] = ZM109 Env clade C HIV-1 fusion inhibitors, dose response, HeLa effector, CEM target cells, luciferase, cherry-pick (AID 652058); type: functional, cell-based
# Sequence of FAD-linked sulfhydryl oxidase ALR (P55789 whole entry): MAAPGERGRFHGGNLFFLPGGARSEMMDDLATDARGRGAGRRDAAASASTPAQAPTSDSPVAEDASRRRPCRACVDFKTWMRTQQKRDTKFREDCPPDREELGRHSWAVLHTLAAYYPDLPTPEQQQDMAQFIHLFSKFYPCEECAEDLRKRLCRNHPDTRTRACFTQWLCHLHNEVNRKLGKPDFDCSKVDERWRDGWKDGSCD
# Sequence of Fatty acid synthase (P49327 whole entry, the tested form may be a part): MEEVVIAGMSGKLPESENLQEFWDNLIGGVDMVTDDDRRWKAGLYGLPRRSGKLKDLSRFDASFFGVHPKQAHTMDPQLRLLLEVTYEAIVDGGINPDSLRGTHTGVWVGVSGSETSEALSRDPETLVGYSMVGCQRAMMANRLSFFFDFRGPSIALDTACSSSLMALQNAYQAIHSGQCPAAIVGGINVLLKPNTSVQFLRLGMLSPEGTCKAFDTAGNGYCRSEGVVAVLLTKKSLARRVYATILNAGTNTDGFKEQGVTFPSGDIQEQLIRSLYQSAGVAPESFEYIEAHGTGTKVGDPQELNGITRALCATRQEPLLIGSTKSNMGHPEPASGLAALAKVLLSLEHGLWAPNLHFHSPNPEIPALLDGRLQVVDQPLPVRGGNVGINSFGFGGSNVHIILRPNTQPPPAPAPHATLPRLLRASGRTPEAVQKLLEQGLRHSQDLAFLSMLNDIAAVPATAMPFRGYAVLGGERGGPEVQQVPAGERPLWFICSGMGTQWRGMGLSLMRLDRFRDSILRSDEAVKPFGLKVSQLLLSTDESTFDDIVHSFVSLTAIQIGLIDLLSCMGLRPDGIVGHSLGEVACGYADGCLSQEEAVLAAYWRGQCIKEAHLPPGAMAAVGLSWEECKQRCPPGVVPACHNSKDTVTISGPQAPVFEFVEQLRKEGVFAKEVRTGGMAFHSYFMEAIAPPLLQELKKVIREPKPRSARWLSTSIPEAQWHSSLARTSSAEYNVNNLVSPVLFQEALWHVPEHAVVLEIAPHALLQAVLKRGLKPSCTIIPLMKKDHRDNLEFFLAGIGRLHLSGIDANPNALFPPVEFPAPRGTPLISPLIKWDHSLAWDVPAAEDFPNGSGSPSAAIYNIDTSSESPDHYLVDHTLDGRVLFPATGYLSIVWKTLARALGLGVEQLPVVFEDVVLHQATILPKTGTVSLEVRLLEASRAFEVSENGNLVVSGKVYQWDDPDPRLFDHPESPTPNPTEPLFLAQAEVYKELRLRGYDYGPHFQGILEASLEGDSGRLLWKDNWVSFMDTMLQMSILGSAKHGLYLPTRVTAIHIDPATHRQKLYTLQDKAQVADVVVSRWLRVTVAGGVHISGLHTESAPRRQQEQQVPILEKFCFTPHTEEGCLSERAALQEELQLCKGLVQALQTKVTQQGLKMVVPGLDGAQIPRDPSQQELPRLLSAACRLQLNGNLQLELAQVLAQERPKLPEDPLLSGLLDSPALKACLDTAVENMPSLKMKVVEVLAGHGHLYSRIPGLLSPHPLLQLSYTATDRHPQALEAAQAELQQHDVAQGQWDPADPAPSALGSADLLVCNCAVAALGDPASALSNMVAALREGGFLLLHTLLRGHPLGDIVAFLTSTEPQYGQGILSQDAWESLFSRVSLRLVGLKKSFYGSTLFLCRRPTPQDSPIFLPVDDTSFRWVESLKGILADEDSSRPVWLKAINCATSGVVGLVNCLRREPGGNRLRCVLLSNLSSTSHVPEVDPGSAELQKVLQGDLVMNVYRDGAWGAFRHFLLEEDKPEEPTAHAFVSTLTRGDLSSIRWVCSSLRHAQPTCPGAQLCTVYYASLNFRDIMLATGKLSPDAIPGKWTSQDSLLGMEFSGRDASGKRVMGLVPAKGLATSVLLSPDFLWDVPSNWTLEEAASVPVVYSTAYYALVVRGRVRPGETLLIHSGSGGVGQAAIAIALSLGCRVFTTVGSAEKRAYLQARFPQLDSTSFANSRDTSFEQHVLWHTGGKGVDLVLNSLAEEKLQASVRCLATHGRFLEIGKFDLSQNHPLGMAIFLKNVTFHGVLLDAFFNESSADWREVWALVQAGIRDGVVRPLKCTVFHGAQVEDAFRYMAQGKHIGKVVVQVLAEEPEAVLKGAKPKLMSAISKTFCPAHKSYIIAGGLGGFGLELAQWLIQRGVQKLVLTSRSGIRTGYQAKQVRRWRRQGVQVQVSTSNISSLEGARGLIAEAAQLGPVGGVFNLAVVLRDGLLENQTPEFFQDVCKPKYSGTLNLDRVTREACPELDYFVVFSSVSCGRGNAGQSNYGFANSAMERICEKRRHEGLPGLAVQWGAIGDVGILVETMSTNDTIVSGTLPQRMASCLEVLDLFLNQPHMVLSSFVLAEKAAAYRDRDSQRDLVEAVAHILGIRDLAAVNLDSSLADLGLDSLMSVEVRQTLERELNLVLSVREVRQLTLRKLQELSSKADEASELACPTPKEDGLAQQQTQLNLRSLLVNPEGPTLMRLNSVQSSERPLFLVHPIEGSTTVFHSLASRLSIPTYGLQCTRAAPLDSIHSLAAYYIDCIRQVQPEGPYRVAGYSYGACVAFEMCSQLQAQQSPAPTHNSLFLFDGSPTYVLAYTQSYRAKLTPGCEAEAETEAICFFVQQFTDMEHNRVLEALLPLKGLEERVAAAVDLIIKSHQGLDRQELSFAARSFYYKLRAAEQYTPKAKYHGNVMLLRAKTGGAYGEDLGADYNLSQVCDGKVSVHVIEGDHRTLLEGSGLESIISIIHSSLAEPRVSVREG
SMILES,GI50 [7],GI50 [8],GI50 [9],further results
CCCNC(=O)c1cc2c3ccccc3n(C)c2s1,,,,AC50 [1]: 0.137 µM (active)
CN(C)c1ccc(C(=O)NNC(=O)c2ccc(Cl)cc2)cc1,,,,IC50 [2]: > 47.1 µM (inactive); EC50 [3]: > 53 µM (inactive)
COC(=O)C1=C(C(=O)c2ccccc2)C(c2ccc(O)c(OC)c2)n2nnnc2N1 (stereo not given),,,,IC50 [2]: > 47.1 µM (inactive); EC50 [3]: > 53 µM (inactive)
O=S(=O)(Nc1ccccc1O)c1ccc2[nH]c(O)nc2c1,,,,AC50 [1]: 2.1 µM (active)
Cc1ccc(N2C(=O)CC(NNC(=O)c3cccc(S(=O)(=O)N4CCCC4)c3)C2=O)cc1 (stereo not given),,,,AC50 [1]: 9.56 µM (active)
CN(C)S(=O)(=O)c1ccc(-c2csc(-c3cccnc3)n2)cc1,,,,IC50 [4]: 3.34 µM (active)
C=CCn1c(SCc2ccc(C(=O)O)cc2)nc2sc(C)c(C)c2c1=O,,,,AC50 [1]: 4.74 µM (active)
COc1ccc2c(C)cc(SCn3nnc4ccccc4c3=O)nc2c1,,,,IC50 [2]: > 47.1 µM (inactive); EC50 [3]: > 53 µM (inactive)
Fc1ccc(OCCCCCn2ccnc2)cc1,,,,IC50 [2]: > 47.1 µM (inactive); EC50 [3]: > 53 µM (inactive); EC50 [5]: > 60 µM (not active); EC50 [6]: 1.67 µM (active)
Cn1ccnc1SCc1cn2ccccc2n1,,,,IC50 [2]: > 47.1 µM (inactive); EC50 [3]: > 53 µM (inactive)
Cc1c(C)c(C)c(C(=O)CCc2cccc(NC(=O)CCC(=O)O)c2)c(C)c1C,,,,AC50 [1]: 1.72 µM (active)
CNC(=O)OCc1nc(SC)n(C)c1CO,> 100 µM (inactive),> 100 µM (inactive),> 100 µM (inactive),
Cc1c(-c2cc3n(n2)C(c2cccs2)C(C#N)=C(c2ccccc2)N3)c(=O)n(-c2ccccc2)n1C (stereo not given),42.1 µM (inactive),76.4 µM (inactive),86.5 µM (inactive),
CC1=NN(C(=O)c2ccccc2)C(=O)C1/N=N/c1ccccc1C(=O)O (stereo not given),9.51 µM (inactive),5.55 µM (inactive),3.24 µM (inactive),
Cc1c2cc[n+](C)cc2c(COC2OC(CO)C(O)C2O)c2c3ccccc3n(C)c12 (stereo not given),2.69 µM (inactive),> 100 µM (inactive),58.2 µM (inactive),
CN(C)CCNC(=O)c1cccc2c1Nc1ccccc1S2,2.25 µM (inactive),2.84 µM (inactive),8.18 µM (inactive),
C[C@@H]1CN([C@H](C)CO)C(=O)c2cccc(NC(=O)c3cnccn3)c2O[C@H]1CN(C)Cc1ccccc1,,,,AC50 [10]: 36.6 µM (active)
Cc1c2cc[n+]([O-])cc2c(C)c2c1[nH]c1ccccc12,0.753 µM (active),4.45 µM (inactive),3.38 µM (inactive),
OCC1OC(n2cnc3c2NC=NC[C@H]3O)CC1O (stereo not given in full),366 µM (inactive),291 µM (inactive),405 µM (inactive),
